Assay results reported in patent US10077436B2, “Beta-glucosidase enzymes for increased biomass saccharification” (Edeniq, Inc., priority 2013, dated 2018).

Test system: A-BG (Accellerase® BG from DuPont), commercial beta-glucosidase
Experiment: BG kinetics, pNPG hydrolysis assay with glucose as competitive inhibitor, A-BG
Type: biochemical
Method: The kinetic properties of beta glucosidase are important for cellulosic hydrolysis, since in commercial situations a wide range of substrate concentrations and different product inhibition conditions will be encountered. In this example, a Michaelis-Menten kinetics model was used to describe BG kinetics.
One pNPG unit is defined as the amount of enzyme that produces 1 μmol of pNP per min. Briefly, to determine BG activity, 25 μL of diluted enzyme in 200 mM sodium acetate buffer (pH 5.0) was mixed with 25 μL of the same buffer and 25 μL of RO water (or glucose solution for the kinetic study) and the mixture was preincubated at 50° C. for 5 min. The reaction was initiated by adding 25 μL of 10 mM pNPG in 200 mM sodium acetate buffer (pH 5.0) and the mixture was incubated at 50° C. for 10 min. The reaction was then terminated by adding 100 μL of 0.25 M sodium carbonate, and the amount of pNP produced was determined by measuring absorbance at 405 nm using a predetermined calibration curve.
The range of substrate concentration was chosen to show detectable activity at the lowest concentration and saturation stage at high substrate concentration.
To determine the kinetic properties, a competitive inhibition mechanism was hypothesized as proposed in the literature (Chauve et al, 2010; Krogh et al, 2010). The Michaelis-Menten equation with the competitive inhibition term can be expressed in Equation (1), where [S] is the substrate concentration (mM), [I] is the inhibitor concentration (mM), V is the rate of product formation (mM/min), Vmax is the maximal rate of product formation (mM/min), Km is the Michaelis-Menten constant and Ki is the inhibition constant. The turnover number, Kcat, can be calculated by Equation (2), where [Et] is the total amount of enzyme.
Conventionally, linearization methods can be used to determine the kinetic parameters based on Equation (1). Three common linear plots used are Lineweaver-Burke, Eadie-Hofstee and Hanes plots (Rogers and Gibon, 2009). However, these linearized versions of the Michaelis-Menten equation often produce substantial errors in parameter estimation. […] All of the activity data at different substrate levels and different inhibitor levels were fit simultaneously according to the full nonlinear equation for competitive enzyme inhibition as expressed in Equation (1). Thus, Vmax, Km and Ki can be determined simultaneously from this fitting process, and Km/Ki can then be calculated. Kcat can be obtained by Equation (2) and Kcat/Km can be calculated accordingly.
The above experimental data were fit in the competitive inhibition model as expressed in Equation (1) by simultaneous nonlinear regression.

## OC[C@H]1OC(O)[C@H](O)[C@@H](O)[C@@H]1O (some centres unmarked) [glucose]
9 g/L initial glucose, 0.08 mM pNPG
  loss of activity under glucose inhibition: lost activity completely
36 g/L initial glucose, high pNPG concentration, relative to maximum activity without glucose
  maximum relative activity under glucose inhibition: 1.5%
36 g/L initial glucose, pNPG below 1.875 mM
  loss of activity under glucose inhibition: activity was completely lost
Inhibitor influence, Km for pNPG / Ki for glucose, pH 5.0, 50° C.
  Km/Ki: 0.22
pNPG substrate, competitive inhibition, pH 5.0, 50° C.
  Ki: 460 ± 50 µM
